Results from ChEMBL document CHEMBL1201862, “PubChem BioAssay data set” (2004).
Active and inactive are the calls of the source.

Columns and labels:
Assay type in all cases: functional
[1] = molecular target: T1, Apoptotic protease-activating factor 1 (Homo sapiens, UniProt O14727)
T1 sequence (O14727 whole entry): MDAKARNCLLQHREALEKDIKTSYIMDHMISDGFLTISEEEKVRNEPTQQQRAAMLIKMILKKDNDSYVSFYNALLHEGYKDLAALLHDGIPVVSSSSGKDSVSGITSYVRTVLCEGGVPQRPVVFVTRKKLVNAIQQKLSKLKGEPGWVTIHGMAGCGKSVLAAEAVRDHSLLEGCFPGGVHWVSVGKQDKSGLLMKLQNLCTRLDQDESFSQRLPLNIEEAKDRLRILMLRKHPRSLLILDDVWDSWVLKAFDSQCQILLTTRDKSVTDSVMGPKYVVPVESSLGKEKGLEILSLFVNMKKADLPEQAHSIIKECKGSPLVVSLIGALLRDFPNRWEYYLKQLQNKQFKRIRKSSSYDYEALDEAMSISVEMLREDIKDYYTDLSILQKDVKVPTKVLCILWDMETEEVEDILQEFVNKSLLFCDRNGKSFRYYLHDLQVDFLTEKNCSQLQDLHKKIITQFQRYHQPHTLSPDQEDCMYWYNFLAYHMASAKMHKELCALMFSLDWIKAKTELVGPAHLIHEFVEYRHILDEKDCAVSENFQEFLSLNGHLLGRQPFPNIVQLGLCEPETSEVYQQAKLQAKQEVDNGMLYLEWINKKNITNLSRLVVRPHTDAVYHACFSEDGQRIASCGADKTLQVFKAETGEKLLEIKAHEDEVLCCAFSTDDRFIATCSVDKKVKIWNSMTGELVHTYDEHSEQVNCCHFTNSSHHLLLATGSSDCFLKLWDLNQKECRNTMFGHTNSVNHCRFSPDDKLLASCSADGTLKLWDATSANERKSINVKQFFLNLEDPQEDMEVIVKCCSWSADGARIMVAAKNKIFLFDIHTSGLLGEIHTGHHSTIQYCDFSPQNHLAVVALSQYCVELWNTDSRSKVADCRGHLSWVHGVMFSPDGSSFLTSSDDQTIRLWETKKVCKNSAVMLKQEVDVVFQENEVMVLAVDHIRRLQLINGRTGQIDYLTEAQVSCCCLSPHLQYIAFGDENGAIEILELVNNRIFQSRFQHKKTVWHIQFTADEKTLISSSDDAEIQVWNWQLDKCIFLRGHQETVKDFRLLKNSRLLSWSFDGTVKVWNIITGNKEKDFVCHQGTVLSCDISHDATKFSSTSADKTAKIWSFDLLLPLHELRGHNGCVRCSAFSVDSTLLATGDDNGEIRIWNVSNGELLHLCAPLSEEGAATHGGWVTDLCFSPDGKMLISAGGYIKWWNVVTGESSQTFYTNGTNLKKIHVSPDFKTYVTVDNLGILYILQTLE

[2] = molecular target: Serine/threonine-protein kinase pim-2 (Homo sapiens, UniProt Q9P1W9);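 note: value comes from a broad kinase panel profiling study in which PIM2 was one of the panel members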
[3] = molecular target: Ribosomal protein S6 kinase alpha-3 (Homo sapiens, UniProt P51812);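 note: measured within a kinome-wide profiling panel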
[4] = molecular target: Mitogen-activated protein kinase 9 (Homo sapiens, UniProt P45984);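 note: value from a kinome panel profiling assay, MAPK9 panel entry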
[5] = molecular target: Receptor tyrosine-protein kinase erbB-4 (Homo sapiens, UniProt Q15303);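 note: ERBB4 member of a kinome-wide kinase profiling panel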
[6] = molecular target: Casein kinase I isoform alpha (Homo sapiens, UniProt P48729)
Chain of Casein kinase I isoform alpha (P48729 whole entry, canonical isoform): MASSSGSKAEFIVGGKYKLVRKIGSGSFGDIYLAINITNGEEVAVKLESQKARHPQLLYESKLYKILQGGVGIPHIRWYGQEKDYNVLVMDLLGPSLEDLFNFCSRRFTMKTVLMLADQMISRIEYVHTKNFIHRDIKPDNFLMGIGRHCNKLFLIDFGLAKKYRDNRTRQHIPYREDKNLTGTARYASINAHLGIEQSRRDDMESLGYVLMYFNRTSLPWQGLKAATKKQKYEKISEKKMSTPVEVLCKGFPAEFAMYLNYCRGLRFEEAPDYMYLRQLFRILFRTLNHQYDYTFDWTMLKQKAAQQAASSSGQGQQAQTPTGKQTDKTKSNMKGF

[7] = molecular target: Dual specificity tyrosine-phosphorylation-regulated kinase 4 (Homo sapiens, UniProt Q9NR20)
Chain of Dual specificity tyrosine-phosphorylation-regulated kinase 4 (Q9NR20 whole entry): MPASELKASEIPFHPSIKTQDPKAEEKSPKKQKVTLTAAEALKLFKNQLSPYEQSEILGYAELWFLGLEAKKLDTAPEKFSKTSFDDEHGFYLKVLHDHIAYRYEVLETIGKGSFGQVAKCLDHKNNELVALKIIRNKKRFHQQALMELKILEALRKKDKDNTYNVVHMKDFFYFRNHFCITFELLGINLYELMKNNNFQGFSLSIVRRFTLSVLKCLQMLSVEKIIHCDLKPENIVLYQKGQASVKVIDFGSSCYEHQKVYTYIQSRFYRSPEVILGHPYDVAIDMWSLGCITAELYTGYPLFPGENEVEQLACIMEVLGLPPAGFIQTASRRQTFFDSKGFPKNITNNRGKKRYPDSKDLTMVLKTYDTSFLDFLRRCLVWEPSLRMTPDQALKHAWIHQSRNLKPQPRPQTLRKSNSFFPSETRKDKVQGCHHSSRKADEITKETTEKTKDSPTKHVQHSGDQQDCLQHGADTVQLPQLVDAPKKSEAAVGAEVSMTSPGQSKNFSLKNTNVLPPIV

[8] = molecular target: Calcium/calmodulin-dependent protein kinase type 1 (Homo sapiens, UniProt Q14012)
Chain of Calcium/calmodulin-dependent protein kinase type 1 (Q14012 whole entry): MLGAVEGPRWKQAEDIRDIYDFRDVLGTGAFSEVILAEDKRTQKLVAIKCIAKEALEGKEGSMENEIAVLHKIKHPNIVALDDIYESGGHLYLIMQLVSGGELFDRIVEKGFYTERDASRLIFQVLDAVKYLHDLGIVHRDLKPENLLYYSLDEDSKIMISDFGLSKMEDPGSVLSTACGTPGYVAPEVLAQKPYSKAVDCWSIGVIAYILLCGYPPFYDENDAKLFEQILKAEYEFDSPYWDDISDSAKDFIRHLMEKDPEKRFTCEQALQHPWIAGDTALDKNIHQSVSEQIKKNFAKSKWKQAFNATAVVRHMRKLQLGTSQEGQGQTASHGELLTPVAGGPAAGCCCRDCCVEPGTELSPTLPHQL

[9] = molecular target: Cyclin-dependent kinase 1 (Homo sapiens, UniProt P06493);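 note: Kinome-wide panel profiling, with the target listed as panel member CDC2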
[10] = molecular target: Serine/threonine-protein kinase Nek2 (Homo sapiens, UniProt P51955)
Chain of Serine/threonine-protein kinase Nek2 (P51955 whole entry): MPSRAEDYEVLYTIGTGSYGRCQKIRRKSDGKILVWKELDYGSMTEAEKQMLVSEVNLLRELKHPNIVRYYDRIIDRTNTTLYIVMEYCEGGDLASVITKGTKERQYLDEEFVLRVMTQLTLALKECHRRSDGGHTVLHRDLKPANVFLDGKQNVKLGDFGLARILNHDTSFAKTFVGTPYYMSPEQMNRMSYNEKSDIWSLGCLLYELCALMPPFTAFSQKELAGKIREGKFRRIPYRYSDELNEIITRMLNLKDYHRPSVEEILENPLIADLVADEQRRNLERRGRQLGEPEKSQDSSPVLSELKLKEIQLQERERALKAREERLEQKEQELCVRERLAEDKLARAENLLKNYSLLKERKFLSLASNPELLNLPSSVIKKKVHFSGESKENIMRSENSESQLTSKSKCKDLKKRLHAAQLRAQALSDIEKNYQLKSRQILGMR

[11] = molecular target: Megakaryocyte-associated tyrosine-protein kinase (Homo sapiens, UniProt P42679);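 note: affinity measured as one member of a kinase panel (Navigating the Kinome) against MATK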
[12] = molecular target: Receptor tyrosine-protein kinase erbB-2 (Homo sapiens, UniProt P04626); test: Navigating the Kinome. Panel member name: ERBB2
[13] = molecular target: Lymphokine-activated killer T-cell-originated protein kinase (Homo sapiens, UniProt Q96KB5);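 note: value comes from a kinase panel screen in which TOPK was one of the panel members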
Chain of Lymphokine-activated killer T-cell-originated protein kinase (Q96KB5 whole entry): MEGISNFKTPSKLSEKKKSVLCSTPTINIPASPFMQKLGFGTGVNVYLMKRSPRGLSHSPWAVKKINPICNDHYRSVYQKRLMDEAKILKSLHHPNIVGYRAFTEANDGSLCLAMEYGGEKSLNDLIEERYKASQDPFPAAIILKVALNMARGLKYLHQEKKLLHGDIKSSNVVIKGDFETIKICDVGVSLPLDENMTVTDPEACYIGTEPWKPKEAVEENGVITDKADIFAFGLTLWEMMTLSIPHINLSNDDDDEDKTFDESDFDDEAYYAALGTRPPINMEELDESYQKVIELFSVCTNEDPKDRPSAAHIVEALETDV

[14] = molecular target: Proto-oncogene tyrosine-protein kinase ROS (Homo sapiens, UniProt P08922);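 note: ROS1 tested as one member of a kinome-wide kinase panel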
Chain of Proto-oncogene tyrosine-protein kinase ROS (P08922 whole entry): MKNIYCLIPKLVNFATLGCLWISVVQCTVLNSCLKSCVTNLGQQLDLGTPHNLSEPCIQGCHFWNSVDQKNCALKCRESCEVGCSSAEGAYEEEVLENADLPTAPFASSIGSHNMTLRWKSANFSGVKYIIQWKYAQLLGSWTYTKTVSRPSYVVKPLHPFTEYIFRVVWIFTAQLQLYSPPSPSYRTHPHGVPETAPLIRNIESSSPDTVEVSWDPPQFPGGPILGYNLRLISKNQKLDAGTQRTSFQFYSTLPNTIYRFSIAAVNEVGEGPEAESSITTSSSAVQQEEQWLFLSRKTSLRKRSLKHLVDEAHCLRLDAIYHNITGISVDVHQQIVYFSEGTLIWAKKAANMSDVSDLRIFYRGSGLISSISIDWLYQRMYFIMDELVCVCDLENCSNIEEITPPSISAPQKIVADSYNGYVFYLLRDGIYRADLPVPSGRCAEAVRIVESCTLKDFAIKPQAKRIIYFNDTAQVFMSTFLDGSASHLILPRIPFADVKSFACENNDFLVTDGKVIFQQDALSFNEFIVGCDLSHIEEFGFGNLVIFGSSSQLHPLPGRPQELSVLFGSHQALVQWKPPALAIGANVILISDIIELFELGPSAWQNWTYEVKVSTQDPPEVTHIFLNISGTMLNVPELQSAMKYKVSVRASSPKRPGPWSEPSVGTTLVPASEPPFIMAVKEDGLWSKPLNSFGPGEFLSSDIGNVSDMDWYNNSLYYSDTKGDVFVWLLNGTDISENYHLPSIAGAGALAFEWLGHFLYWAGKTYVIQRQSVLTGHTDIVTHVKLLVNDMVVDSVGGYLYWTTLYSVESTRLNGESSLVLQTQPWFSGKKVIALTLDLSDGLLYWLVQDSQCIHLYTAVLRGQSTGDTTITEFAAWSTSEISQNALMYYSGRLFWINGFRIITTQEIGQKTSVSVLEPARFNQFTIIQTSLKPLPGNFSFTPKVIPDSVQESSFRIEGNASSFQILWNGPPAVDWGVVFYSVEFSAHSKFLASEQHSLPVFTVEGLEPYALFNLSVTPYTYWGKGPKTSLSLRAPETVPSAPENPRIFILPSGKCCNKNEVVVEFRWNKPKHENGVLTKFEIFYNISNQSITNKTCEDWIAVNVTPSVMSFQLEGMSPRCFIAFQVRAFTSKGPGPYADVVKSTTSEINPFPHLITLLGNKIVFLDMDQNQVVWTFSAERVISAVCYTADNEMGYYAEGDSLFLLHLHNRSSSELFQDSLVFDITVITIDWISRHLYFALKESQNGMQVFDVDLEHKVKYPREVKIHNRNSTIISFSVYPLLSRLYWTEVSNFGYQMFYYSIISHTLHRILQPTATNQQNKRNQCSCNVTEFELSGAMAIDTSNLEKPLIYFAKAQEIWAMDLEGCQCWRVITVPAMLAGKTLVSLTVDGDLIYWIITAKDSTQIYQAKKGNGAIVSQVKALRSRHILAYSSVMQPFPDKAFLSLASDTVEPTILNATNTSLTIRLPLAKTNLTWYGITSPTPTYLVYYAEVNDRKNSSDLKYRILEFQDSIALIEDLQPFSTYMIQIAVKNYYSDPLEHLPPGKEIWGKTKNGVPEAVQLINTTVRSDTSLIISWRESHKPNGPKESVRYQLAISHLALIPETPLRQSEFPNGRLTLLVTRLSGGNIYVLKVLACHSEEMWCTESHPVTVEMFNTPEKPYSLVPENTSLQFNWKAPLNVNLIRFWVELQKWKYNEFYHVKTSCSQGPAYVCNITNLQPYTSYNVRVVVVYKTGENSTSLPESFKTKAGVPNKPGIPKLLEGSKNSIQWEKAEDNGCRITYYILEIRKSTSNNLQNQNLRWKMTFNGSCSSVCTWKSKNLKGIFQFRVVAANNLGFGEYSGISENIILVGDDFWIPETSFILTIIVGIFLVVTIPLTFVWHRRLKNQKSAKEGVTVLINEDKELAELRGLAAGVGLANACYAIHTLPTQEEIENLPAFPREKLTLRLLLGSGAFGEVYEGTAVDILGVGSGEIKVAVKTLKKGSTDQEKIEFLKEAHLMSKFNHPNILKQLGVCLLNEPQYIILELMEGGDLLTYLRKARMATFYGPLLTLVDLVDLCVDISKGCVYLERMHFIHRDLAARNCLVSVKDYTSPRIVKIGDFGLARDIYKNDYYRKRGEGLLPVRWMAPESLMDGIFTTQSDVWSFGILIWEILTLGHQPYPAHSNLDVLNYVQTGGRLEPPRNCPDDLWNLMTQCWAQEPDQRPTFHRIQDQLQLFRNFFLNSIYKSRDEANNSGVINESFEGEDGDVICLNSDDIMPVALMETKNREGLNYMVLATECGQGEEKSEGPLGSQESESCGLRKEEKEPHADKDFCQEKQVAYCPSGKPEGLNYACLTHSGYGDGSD

[15] = molecular target: Serine/threonine-protein kinase TBK1 (Homo sapiens, UniProt Q9UHD2); test: Navigating the Kinome. Panel member name: TBK1
Chain of Serine/threonine-protein kinase TBK1 (Q9UHD2 whole entry): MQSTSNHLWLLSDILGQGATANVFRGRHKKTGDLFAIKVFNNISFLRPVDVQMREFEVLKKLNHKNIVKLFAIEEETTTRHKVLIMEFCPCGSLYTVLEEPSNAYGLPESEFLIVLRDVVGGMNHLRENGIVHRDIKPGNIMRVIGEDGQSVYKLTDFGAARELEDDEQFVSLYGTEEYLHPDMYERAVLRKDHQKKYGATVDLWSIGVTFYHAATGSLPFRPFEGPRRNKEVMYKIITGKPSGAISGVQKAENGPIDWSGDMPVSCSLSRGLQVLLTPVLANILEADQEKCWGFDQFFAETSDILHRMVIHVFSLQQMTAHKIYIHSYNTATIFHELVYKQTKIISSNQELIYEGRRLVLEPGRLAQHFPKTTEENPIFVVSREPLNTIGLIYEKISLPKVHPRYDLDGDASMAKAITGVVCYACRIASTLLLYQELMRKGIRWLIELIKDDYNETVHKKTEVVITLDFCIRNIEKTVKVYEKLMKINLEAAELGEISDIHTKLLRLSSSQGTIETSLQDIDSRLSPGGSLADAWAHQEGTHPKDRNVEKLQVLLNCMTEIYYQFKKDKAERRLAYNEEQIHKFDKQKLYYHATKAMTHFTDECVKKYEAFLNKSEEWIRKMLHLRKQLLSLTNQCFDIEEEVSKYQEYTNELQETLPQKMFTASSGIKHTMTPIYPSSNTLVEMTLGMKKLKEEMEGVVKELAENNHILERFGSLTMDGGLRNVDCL

Aurora kinase A = Aurora kinase A (Homo sapiens, UniProt O14965);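 note: value from the Navigating the Kinome kinase panel profiling, panel entry STK6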
[16] = molecular target: Dual specificity mitogen-activated protein kinase kinase 1 (Homo sapiens, UniProt Q02750); test: Navigating the Kinome. Panel member name: MAP2K1
Focal adhesion kinase 1 = Focal adhesion kinase 1 (Homo sapiens, UniProt Q05397);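 note: measured as one member of a kinome panel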
[17] = molecular target: Inhibitor of nuclear factor kappa-B kinase subunit epsilon (Homo sapiens, UniProt Q14164); test: Navigating the Kinome. Panel member name: IKBKE
[18] = molecular target: Proto-oncogene tyrosine-protein kinase receptor Ret (Homo sapiens, UniProt P07949);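 note: measured within a kinome-wide profiling panel, RET as the panel member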
[19] = molecular target: Dual specificity tyrosine-phosphorylation-regulated kinase 1B (Homo sapiens, UniProt Q9Y463); test: Navigating the Kinome. Panel member name: DYRK1B
[20] = molecular target: Dual specificity mitogen-activated protein kinase kinase 2 (Homo sapiens, UniProt P36507); test: Navigating the Kinome. Panel member name: MAP2K2

Row | Structure (SMILES) | Ki [3] | Ki [4] | Ki [5] | Ki [6] | Ki [7] | Ki [8] | Ki [10] | Ki [11] | Ki [12] | Ki [13] | Ki [14] | Ki [15] | Ki (Aurora kinase A) | Ki [16] | Ki (Focal adhesion kinase 1) | Ki [17] | Ki [18] | Ki [19] | Ki [20] | other results
1 | O=C1C2=[N+]([O-])[C@H]3CCCC[C@H]3[N+]([O-])=C2c2ccccc21 | – | – | – | – | – | – | – | – | – | – | – | – | – | – | – | – | – | – | – | IC50 [1]: 18.1 µM (active)
2 | NC1CCC(Nc2nccc(-c3c[nH]c4ncccc34)n2)CC1 (stereo unspecified) | 0.00501 µM (active) | 0.126 µM (active) | > 3.98 µM (inactive) | 0.0501 µM (active) | 1.58 µM (active) | > 1.26 µM (inactive) | > 10 µM (inactive) | > 2 µM (inactive) | > 1.58 µM (inactive) | 0.631 µM (active) | > 2 µM (inactive) | – | – | – | – | – | – | – | – | Ki [2]: 0.501 µM (active); Ki [9]: 0.00631 µM (active)
3 | OCc1cc(-c2ccc3[nH]ncc3c2)on1 | – | 79.4 µM (active) | – | – | – | – | 39.8 µM (active) | – | – | – | – | 50.1 µM (active) | 15.8 µM (active) | 10 µM (active) | 63.1 µM (active) | 20 µM (active) | 50.1 µM (active) | 0.1 µM (active) | 15.8 µM (active) | –
4 | COC(C(=O)N1Cc2[nH]nc(NC(=O)c3ccc(N4CCN(C)CC4)cc3)c2C1)c1ccccc1 (stereo unspecified) | – | – | > 3.98 µM (inactive) | – | > 7.94 µM (inactive) | > 2.51 µM (inactive) | – | > 2 µM (inactive) | > 1.58 µM (inactive) | > 10 µM (inactive) | 0.00794 µM (active) | – | – | – | – | – | – | – | – | –
5 | CC(C)(O)c1cn(-c2ccc3[nH]ncc3c2)nn1 | 39.8 µM (active) | – | – | 10 µM (active) | – | – | – | – | – | – | – | 79.4 µM (active) | 25.1 µM (active) | 20 µM (active) | 50.1 µM (active) | 31.6 µM (active) | 25.1 µM (active) | 2 µM (active) | 25.1 µM (active) | –
